From patent US20210231678A1, “ALLERGY ANTIGEN AND EPITOPE THEREOF” (FUJITA ACADEMY, priority 2020, published 2021)

What follows are substances tested on IgE antibody present in the serum of a patient (latex-allergic) (assay: Latex epitope mapping (2) overlapping 10-residue peptides and (3) alanine/glycine scanning on peptide arrays). Conditions: serum of latex-allergic patient P17.
Format: binding, human
Description: On the basis of the sequences (SEQ ID NOs: 5, 25, 35, 68 and 83) of the peptides bound to an IgE antibody in serum in a patient-specific manner as described above in (A), a library of overlapping peptide fragments (length: 10 amino acids) was prepared using the sequences of the peptides and sequences in which sequences were added so as to flank each peptide in the amino acid sequences of allergy components comprising the sequences of the peptide. Epitope mapping was carried out using the library.
The peptides to be synthesized were shifted by one amino acid.
The library was prepared by the same procedure as described above in (A), and the presence or absence of binding of an IgE antibody present in the serum of a patient to each peptide fragment was measured by the same technique as described above. Numeric values determined from images obtained as a result of carrying out only the procedures (1) and (4) to (6) described above in the subsection titled (3) Spotting of cellulose-bound peptide solution were used as control values. The control value of each peptide was subtracted from numeric values determined from images obtained from results about the serum of patients, and the obtained value of the difference was compared with values of the peptides serving as the basis of overlapping.
Chemiluminescence intensity in images obtained by measurement was converted into a numeric value in the same manner as in (A). Numeric values determined from images obtained as a result of carrying out only the procedures (1) and (4) to (6) described above in the subsection titled (3) Spotting of cellulose-bound peptide solution (secondary antibody measurement values) were used as control values. The control value of each peptide was subtracted from numeric values determined from images obtained from results about the serum of patients. When values obtained using the sequences (SEQ ID NOs: 5, 25, 35, 68 and 83) serving as the basis of overlapping were defined as 100%, it was determined that: a peptide having a value of the difference that was less than 30% had no binding activity against IgE antibodies; a peptide having a value of the difference that was 30% or more and less than 50% had binding activity, albeit poor, against IgE antibodies; a peptide having a value of the difference that was 50% or more and less than 70% had binding activity, albeit somewhat poor, against IgE antibodies; and a peptide having a value of the difference that was 70% or more had equivalent or good binding activity against IgE antibodies and was thus a peptide had remaining binding activity against IgE antibodies.
From the amino acid sequences identified above in (A), a library of peptide fragments in which amino-terminal amino acids were substituted one by one by alanine (or glycine when the original amino acid was alanine) according to a technique called alanine/glycine scanning (Non Patent Literature 5) was prepared by the same technique as described above. The presence or absence of binding of an IgE antibody present in the serum of a patient to each peptide fragment was measured by the same technique as described above.
Chemiluminescence intensity in images obtained by measurement was converted into a numeric value in the same manner as in (A). Numeric values determined from images obtained from secondary antibody measurement values were used as control values. The control value of each peptide was subtracted from numeric values determined from images obtained from results about the serum of 17 patients (patient Nos. P1-P17). […]

Substance | epitope sequence grade for binding to IgE antibody
117 (SKFYD; epitope) [compound 117] | Key
118 (YDDKNGYSSS; epitope) [compound 118] | Preferably
119 (DKNGYSSS; epitope) [compound 119] | Key

Same assay, conditions: short partial sequences of the 15-residue epitopes

Substance | confirmed as epitope binding to IgE antibodies
KPLN (epitope) [SEQ ID NO: 30] | confirmed as epitopes binding to IgE antibodies
KVGK (epitope) [SEQ ID NO: 78] | confirmed as epitopes binding to IgE antibodies
QKPY (epitope) [SEQ ID NO: 6] | confirmed as epitopes binding to IgE antibodies

These substances were tested on IgE antibody present in the serum of a latex-allergic patient (assay: Latex epitope mapping (1): array of overlapping 15-amino-acid peptides). Conditions: 15-residue peptides; serum of 17 latex-allergic patients; chemiluminescence difference from N2nd value of at least 35,000 = bound.
Format: binding, human
Description: Epitope mapping was carried out using a library of overlapping peptides (length: 15 amino acids) corresponding to the amino acid sequences identified as allergy components of latex. Specifically, the library of overlapping peptides was prepared on the basis of the amino acid sequences of SEQ ID NOs: 2 and 4.
The peptides to be synthesized were shifted by 10 amino acids.
For preparation of peptide arrays, the Intavis CelluSpots™ technique was used. Specifically, the peptide arrays were prepared by the following procedure: (1) synthesizing peptides of interest on amino-modified cellulose disks using an automated chemical synthesis apparatus (Intavis MultiPep RS), (2) dissolving the amino-modified cellulose disks to obtain a cellulose-bound peptide solution, and (3) spotting the cellulose-bound peptides onto coated glass slides. The details of each procedure are as described below.
The presence or absence of binding, to each peptide fragment, of an IgE antibody present in the serum of a latex-allergic patient was measured through antigen-antibody reaction using the peptide arrays. The measurement was carried out according to the following procedure.
(1) The peptides were shaken at room temperature for 1 hour in Pierce Protein-Free (PBS) Blocking Buffer (produced by Thermo Fisher Scientific). (2) The peptide arrays were shaken at overnight at 4° C. in 2% serum/Pierce Protein-Free (PBS) Blocking Buffer (produced by Thermo Fisher Scientific). (3) The peptide arrays were washed with PBST (a PBS buffer containing […] Tween 20 nonionic surfactant) for 5 minutes (×3). (4) Anti-human IgE antibody-HRP (1:20,000, Pierce Protein-Free (PBS) Blocking Buffer (produced by Thermo Fisher Scientific)) was added thereto, and the peptide arrays were shaken at room temperature for 1 hour. (5) The peptide arrays were washed with PBST for 5 minutes (×3). (6) Pierce ECL Plus Western Blotting Substrate (produced by Thermo Fisher Scientific) was added thereto, and the peptide arrays were shaken at room temperature for 5 minutes. (7) The chemiluminescence of the peptides treated as described above in (1) to (6) was measured using Amersham Imager 600.
Chemiluminescence intensity in images obtained by the measurement described above in (7) was converted into a numeric value using ImageQuant TL (GE Healthcare). The second highest value among numeric values determined from images obtained from results about the serum of 4 non-latex-allergic subjects was defined as the N2nd value. The N2nd value of each peptide was subtracted from numeric values determined from images obtained from results about the serum of 17 patients (17 latex-allergic patients; respectively given patient Nos. P1-P17). It was determined that a peptide having a value of at least 35,000 as the difference was a peptide bound to an IgE antibody in a patient-specific manner.

Substance | patient-specific binding of IgE antibody to peptide
DLKSYKSNSVATDIY (epitope) [SEQ ID NO: 35] | confirmed to bind
KPYDKPLNDRYSYKN (epitope) [SEQ ID NO: 25] | confirmed to bind
PLTEDNFVIQKPYDK (epitope) [SEQ ID NO: 5] | confirmed to bind
VNVIHKVGKGEITVF (epitope) [SEQ ID NO: 68] | confirmed to bind
WSKFYDDKNGYSSSI (epitope) [SEQ ID NO: 83] | confirmed to bind
